According to patent publication US20250145665A1, “MACROCYCLIC PEPTIDES USEFUL AS MODULATORS OF TNF ALPHA” (Bristol-Myers Squibb Company, priority 2023, published 2025):
Starred links: 1 amine or outer side, 2 acyl side, 3 side chain; linkers in the order of their positions; H or OH if unused. Positions of bridges follow the written chain, without caps; N, C: chain ends. Non-standard residues stand in square brackets, D forms with d. Residues, ends and D or L forms follow the SMILES beside them. Bip(4'-COOH) = N[C@@H](Cc1ccc(-c2ccc(C(=O)O)cc2)cc1)C(=O)O; Phe(4-(4-pyridyl)) = N[C@@H](Cc1ccc(-c2ccncc2)cc1)C(=O)O; Phe(4-(3-Py)) = N[C@@H](Cc1ccc(-c2cccnc2)cc1)C(=O)O; Pro(trans-4-Ph) = O=C(O)[C@@H]1C[C@@H](c2ccccc2)CN1; Pro(cis-4-Ph) = O=C(O)[C@@H]1C[C@H](c2ccccc2)CN1; Ala(morpholin-4-yl) = N[C@@H](CN1CCOCC1)C(=O)O; Asp(3,3-Me2) = CC(C)(C(=O)O)[C@H](N)C(=O)O; Bip = N[C@@H](Cc1ccc(-c2ccccc2)cc1)C(=O)O; Val(3-OH) = CC(C)(O)[C@H](N)C(=O)O; X82 = C[C@@]1(C(=O)[*:2])CCN1[*:1]; 3Pal = N[C@@H](Cc1cccnc1)C(=O)O; d(αMeP) = C[C@]1(C(=O)O)CCCN1; Sar = CNCC(=O)O

molecular target: TNFα (Homo sapiens, UniProt P01375); assay: TNF-Induced HEK-Blue Assay; assay type: cell-based; settings: HEK-Blue-CD40L cells, NF-kB-driven secreted alkaline phosphatase reporter; TNFα 0.5 ng/ml; 18 h; read-out: TNF induced HEK-Blue assay IC50 value
Sequence (P01375 77-233 limits assumed): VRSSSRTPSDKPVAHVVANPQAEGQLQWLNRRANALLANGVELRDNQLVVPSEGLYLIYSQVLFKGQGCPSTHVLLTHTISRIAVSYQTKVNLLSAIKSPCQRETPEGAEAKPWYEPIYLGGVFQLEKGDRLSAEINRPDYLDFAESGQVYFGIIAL

First: CC(C)[C@@H]1NC(=O)[C@H](CCCNC(=N)N)NC(=O)[C@H](C(C)C)NC(=O)[C@@H]2CCCN2C(=O)[C@H](C(C)C)NC(=O)[C@H](CCCNC(=N)N)NC(=O)[C@H](CC(=O)O)NC(=O)[C@@H]2CCCN2C(=O)CN(C)C(=O)[C@H](Cc2ccc(-c3ccc(C(=O)O)cc3)cc2)NC(=O)[C@H](Cc2ccc(-c3ccccc3)cc2)NC(=O)[C@H](CN2CCOCC2)NC(=O)CSC[C@@H](C(=O)NCC(N)=O)NC1=O [Example 90] ({CH2CO}-[Ala(morpholin-4-yl)][Bip][Bip(4'-COOH)][Sar]PDRVPVRVCG-NH2; thioether N-13)
Second: CC(C)[C@@H]1NC(=O)[C@H](CCCNC(=N)N)NC(=O)[C@H](C(C)C)NC(=O)[C@@H]2CCCN2C(=O)[C@H](C(C)C)NC(=O)[C@H](CCCNC(=N)N)NC(=O)[C@H](CC(=O)O)NC(=O)[C@@H]2CCCN2C(=O)CN(C)C(=O)[C@H](Cc2ccc(-c3ccncc3)cc2)NC(=O)[C@H](Cc2ccc(-c3ccccc3)cc2)NC(=O)[C@H](CN2CCOCC2)NC(=O)CSC[C@@H](C(=O)NCC(N)=O)NC1=O [Example 91] ({CH2CO}-[Ala(morpholin-4-yl)][Bip][Phe(4-(4-pyridyl))][Sar]PDRVPVRVCG-NH2; thioether N-13)
The IC50 of the first is lower: 50 to 200 nM for the first, 200 to 2000 nM for the second. The first is the more potent here.

`CC(C)[C@@H]1NC(=O)[C@H](CCCNC(=N)N)NC(=O)[C@H](C(C)C)NC(=O)[C@@H]2CCCN2C(=O)[C@H](C(C)C)NC(=O)[C@H](CCCNC(=N)N)NC(=O)[C@H](CC(=O)O)NC(=O)[C@@H]2CCCN2C(=O)CN(C)C(=O)[C@H](Cc2ccc(-c3cccnc3)cc2)NC(=O)[C@H](Cc2ccc(-c3ccccc3)cc2)NC(=O)[C@H](CN2CCOCC2)NC(=O)CSC[C@@H](C(=O)NCC(N)=O)NC1=O` [Example 92] ({CH2CO}-[Ala(morpholin-4-yl)][Bip][Phe(4-(3-Py))][Sar]PDRVPVRVCG-NH2; thioether N-13) and `CC(C)C[C@@H]1NC(=O)[C@H](CCCNC(=N)N)NC(=O)[C@H](C(C)C)NC(=O)[C@@H]2CCCN2C(=O)[C@H](C(C)C)NC(=O)[C@@H](CCCNC(=N)N)NC(=O)[C@H](CC(=O)O)NC(=O)[C@@]2(C)CCCN2C(=O)CN(C)C(=O)[C@H](Cc2ccc(-c3ccccc3)cc2)NC(=O)[C@H](Cc2ccc(-c3ccccc3)cc2)NC(=O)[C@H](CN2CCOCC2)NC(=O)CSC[C@@H](C(=O)NCC(N)=O)NC1=O` [Example 103] ({CH2CO}-[Ala(morpholin-4-yl)][Bip][Bip][Sar][d(αMeP)]D[dR]VPVRLCG-NH2; thioether N-13) fall in the same range of IC50: 200 to 2000 nM for the first, 200 to 2000 nM for the second.

Compared with `CC(C)C[C@@H]1NC(=O)[C@H](Cc2ccc(O)cc2)NC(=O)[C@H](C(C)C)NC(=O)[C@]2(C)CCN2C(=O)[C@H](C(C)C)NC(=O)[C@H](CCCNC(=N)N)NC(=O)[C@H](CC(=O)O)NC(=O)[C@H](Cc2ccc(O)cc2)NC(=O)CN(C)C(=O)[C@H](Cc2ccc(-c3ccccc3)cc2)NC(=O)[C@H](Cc2ccc(-c3ccccc3)cc2)NC(=O)[C@H](CN2CCOCC2)NC(=O)CSC[C@@H](C(=O)NCC(N)=O)NC1=O` [Example 93] ({CH2CO}-[Ala(morpholin-4-yl)][Bip][Bip][Sar]YDRV[X82]VYLCG-NH2; thioether N-13), `CC(C)C[C@@H]1NC(=O)[C@H](Cc2ccc(O)cc2)NC(=O)[C@H](C(C)C)NC(=O)[C@@H]2CCCN2C(=O)[C@H](C(C)C)NC(=O)[C@H](CCCNC(=N)N)NC(=O)[C@H](C(C)(C)C(=O)O)NC(=O)[C@H](Cc2ccc(O)cc2)NC(=O)CN(C)C(=O)[C@H](Cc2ccc(-c3ccccc3)cc2)NC(=O)[C@H](Cc2ccc(-c3ccccc3)cc2)NC(=O)[C@H](CN2CCOCC2)NC(=O)CSC[C@@H](C(=O)NCC(N)=O)NC1=O` [Example 100] ({CH2CO}-[Ala(morpholin-4-yl)][Bip][Bip][Sar]Y[Asp(3,3-Me2)]RVPVYLCG-NH2; thioether N-13) is higher in IC50: 50 to 200 nM for the first, 200 to 2000 nM for the second. The first is the more potent here.

Compared with `CC(C)C[C@@H]1NC(=O)[C@H](Cc2ccc(O)cc2)NC(=O)[C@H](C(C)C)NC(=O)[C@@H]2CCCN2C(=O)[C@H](C(C)C)NC(=O)[C@H](CCCNC(=N)N)NC(=O)[C@H](CC(=O)O)NC(=O)[C@@H]2C[C@H](c3ccccc3)CN2C(=O)CN(C)C(=O)[C@H](Cc2ccc(-c3ccccc3)cc2)NC(=O)[C@H](Cc2ccc(-c3ccccc3)cc2)NC(=O)[C@H](CN2CCOCC2)NC(=O)CSC[C@@H](C(=O)NCC(N)=O)NC1=O` [Example 94] ({CH2CO}-[Ala(morpholin-4-yl)][Bip][Bip][Sar][Pro(cis-4-Ph)]DRVPVYLCG-NH2; thioether N-13), `CC(C)C[C@@H]1NC(=O)[C@H](Cc2ccc(O)cc2)NC(=O)[C@H](C(C)C)NC(=O)[C@@H]2CCCN2C(=O)[C@H](C(C)C)NC(=O)[C@H](CCCNC(=N)N)NC(=O)[C@H](CC(=O)O)NC(=O)[C@@H]2C[C@@H](c3ccccc3)CN2C(=O)CN(C)C(=O)[C@H](Cc2ccc(-c3ccccc3)cc2)NC(=O)[C@H](Cc2ccc(-c3ccccc3)cc2)NC(=O)[C@H](CN2CCOCC2)NC(=O)CSC[C@@H](C(=O)NCC(N)=O)NC1=O` [Example 95] ({CH2CO}-[Ala(morpholin-4-yl)][Bip][Bip][Sar][Pro(trans-4-Ph)]DRVPVYLCG-NH2; thioether N-13) is higher in IC50: 50 to 200 nM for the first, 200 to 2000 nM for the second.

`CC(C)C[C@@H]1NC(=O)[C@H](CCCNC(=N)N)NC(=O)[C@H](C(C)C)NC(=O)[C@@H]2CCCN2C(=O)[C@H](C(C)C)NC(=O)[C@H](CCCNC(=N)N)NC(=O)[C@H](CC(=O)O)NC(=O)[C@@H]2C[C@H](c3ccccc3)CN2C(=O)CN(C)C(=O)[C@H](Cc2ccc(-c3ccccc3)cc2)NC(=O)[C@H](Cc2ccc(-c3ccccc3)cc2)NC(=O)[C@H](CN2CCOCC2)NC(=O)CSC[C@@H](C(=O)NCC(N)=O)NC1=O` [Example 96] ({CH2CO}-[Ala(morpholin-4-yl)][Bip][Bip][Sar][Pro(cis-4-Ph)]DRVPVRLCG-NH2; thioether N-13) and `CC(C)C[C@@H]1NC(=O)[C@H](CCCNC(=N)N)NC(=O)[C@H](C(C)C)NC(=O)[C@@H]2CCCN2C(=O)[C@H](C(C)C)NC(=O)[C@H](CCCNC(=N)N)NC(=O)[C@H](CC(=O)O)NC(=O)[C@@H]2C[C@@H](c3ccccc3)CN2C(=O)CN(C)C(=O)[C@H](Cc2ccc(-c3ccccc3)cc2)NC(=O)[C@H](Cc2ccc(-c3ccccc3)cc2)NC(=O)[C@H](CN2CCOCC2)NC(=O)CSC[C@@H](C(=O)NCC(N)=O)NC1=O` [Example 97] ({CH2CO}-[Ala(morpholin-4-yl)][Bip][Bip][Sar][Pro(trans-4-Ph)]DRVPVRLCG-NH2; thioether N-13) fall in the same range of IC50: 50 to 200 nM for the first, 50 to 200 nM for the second.

Compared with `CC(C)C[C@@H]1NC(=O)[C@H](Cc2ccc(O)cc2)NC(=O)[C@H](C(C)C)NC(=O)[C@@H]2CCCN2C(=O)[C@H](C(C)C)NC(=O)[C@@H](CCCNC(=N)N)NC(=O)[C@H](CC(=O)O)NC(=O)[C@@H]2C[C@H](c3ccccc3)CN2C(=O)CN(C)C(=O)[C@H](Cc2ccc(-c3ccccc3)cc2)NC(=O)[C@H](Cc2ccc(-c3ccccc3)cc2)NC(=O)[C@H](CN2CCOCC2)NC(=O)CSC[C@@H](C(=O)NCC(N)=O)NC1=O` [Example 98] ({CH2CO}-[Ala(morpholin-4-yl)][Bip][Bip][Sar][Pro(cis-4-Ph)]D[dR]VPVYLCG-NH2; thioether N-13), `CC(C)C[C@@H]1NC(=O)[C@H](Cc2ccc(O)cc2)NC(=O)[C@H](C(C)C)NC(=O)[C@@H]2CCCN2C(=O)[C@H](C(C)C)NC(=O)[C@@H](CCCNC(=N)N)NC(=O)[C@H](CC(=O)O)NC(=O)[C@@H]2C[C@@H](c3ccccc3)CN2C(=O)CN(C)C(=O)[C@H](Cc2ccc(-c3ccccc3)cc2)NC(=O)[C@H](Cc2ccc(-c3ccccc3)cc2)NC(=O)[C@H](CN2CCOCC2)NC(=O)CSC[C@@H](C(=O)NCC(N)=O)NC1=O` [Example 99] ({CH2CO}-[Ala(morpholin-4-yl)][Bip][Bip][Sar][Pro(trans-4-Ph)]D[dR]VPVYLCG-NH2; thioether N-13) is higher in IC50: 50 to 200 nM for the first, 200 to 2000 nM for the second.

First: CC(C)C[C@@H]1NC(=O)[C@H](Cc2ccc(O)cc2)NC(=O)[C@H](C(C)C)NC(=O)[C@@H]2CCCN2C(=O)[C@H](C(C)C)NC(=O)[C@H](CCCNC(=N)N)NC(=O)[C@H](CC(=O)O)NC(=O)[C@@]2(C)CCCN2C(=O)CN(C)C(=O)[C@H](Cc2ccc(-c3ccccc3)cc2)NC(=O)[C@H](Cc2ccc(-c3ccccc3)cc2)NC(=O)[C@H](CN2CCOCC2)NC(=O)CSC[C@@H](C(=O)NCC(N)=O)NC1=O [Example 101] ({CH2CO}-[Ala(morpholin-4-yl)][Bip][Bip][Sar][d(αMeP)]DRVPVYLCG-NH2; thioether N-13)
Second: CC(C)C[C@@H]1NC(=O)[C@H](Cc2ccc(O)cc2)NC(=O)[C@H](C(C)C)NC(=O)[C@@H]2CCCN2C(=O)[C@H](C(C)C)NC(=O)[C@@H](CCCNC(=N)N)NC(=O)[C@H](CC(=O)O)NC(=O)[C@@]2(C)CCCN2C(=O)CN(C)C(=O)[C@H](Cc2ccc(-c3ccccc3)cc2)NC(=O)[C@H](Cc2ccc(-c3ccccc3)cc2)NC(=O)[C@H](CN2CCOCC2)NC(=O)CSC[C@@H](C(=O)NCC(N)=O)NC1=O [Example 102] ({CH2CO}-[Ala(morpholin-4-yl)][Bip][Bip][Sar][d(αMeP)]D[dR]VPVYLCG-NH2; thioether N-13)
The IC50 of the first is lower: 50 to 200 nM for the first, 200 to 2000 nM for the second.

First: CC(C)C[C@@H]1NC(=O)[C@H](CCCNC(=N)N)NC(=O)[C@H](Cc2ccccc2)NC(=O)[C@@H]2CCCN2C(=O)[C@H](C(C)C)NC(=O)[C@@H](CCCNC(=N)N)NC(=O)[C@H](CC(=O)O)NC(=O)[C@@H]2CCCN2C(=O)CN(C)C(=O)[C@H](Cc2ccc(-c3ccccc3)cc2)NC(=O)[C@H](Cc2ccc(-c3ccccc3)cc2)NC(=O)[C@H](CN2CCOCC2)NC(=O)CSC[C@@H](C(=O)NCC(N)=O)NC1=O [Example 104] ({CH2CO}-[Ala(morpholin-4-yl)][Bip][Bip][Sar]PD[dR]VPFRLCG-NH2; thioether N-13)
Second: CC(C)C[C@@H]1NC(=O)[C@H](Cc2ccc(O)cc2)NC(=O)[C@H](C(C)C)NC(=O)[C@H](Cc2cccnc2)NC(=O)[C@H](C(C)C)NC(=O)[C@H](CCCNC(=N)N)NC(=O)[C@H](CC(=O)O)NC(=O)[C@H](Cc2ccc(O)cc2)NC(=O)CN(C)C(=O)[C@H](Cc2ccc(-c3ccccc3)cc2)NC(=O)[C@H](Cc2ccc(-c3ccccc3)cc2)NC(=O)[C@H](C(C)(C)O)NC(=O)CSC[C@@H](C(=O)NCC(N)=O)NC1=O [Example 106] ({CH2CO}-[Val(3-OH)][Bip][Bip][Sar]YDRV[3Pal]VYLCG-NH2; thioether N-13)
The IC50 of the first is higher: 200 to 2000 nM for the first, 50 to 200 nM for the second. The second is the more potent here.
